# Results as given in publication PMC6152134, “Synthesis and In Vitro Anticancer Activity of Novel Dehydroabietic Acid-Based Acylhydrazones” (Molecules : A Journal of Synthetic Chemistry and Natural …, 2017).
# Key:
# [1] = system: CNE-2 (nasopharynx) human carcinoma cell line; experiment: MTT cytotoxicity assay, CNE-2 cells; format: cell-based; details: Homo sapiens, 48 h exposure
# Protocol: (§1) Compounds 4a–x were evaluated for their cytotoxic activity in vitro against the human cancer cell lines, CNE-2, HepG2, HeLa, and BEL-7402 by using a 3-(4,5-dimethylthiazol-2-yl)-2,5-diphenyl tetrazolium bromide (MTT) colorimetric assay. Cisplatin was included in the experiments as a positive control, and the IC50 of DHA is also presented to compare the anticancer activities. The calculated IC50 values were reported differently according to the different cancer cells.
# (§2) The CNE-2, HepG2, HeLa, and BEL-7402 cell lines used in this work were all purchased from the Institute of Biochemistry and Cell Biology, China Academy of Sciences. All were supplemented with 10% heat-inactivated fetal bovine serum in a humidified atmosphere of 5% CO2/95% air at 37 °C. In order to investigate the potential of compounds 4, cisplatin, a commercial classical anticancer drug was used as a reference drug. CNE-2, HepG2, HeLa, and BEL-7402 cells were seeded into 96-well microculture plates and allowed to adhere for 24 h, respectively. After cells were exposed to compounds at concentrations from 100 to 0.1 μM for 48 h, medium was aspirated and replenished with complete medium. IC50 values was evaluated by MTT tetrazolium dye assay. All the tests were repeated in at least three independent experiments. The IC50 values of the compounds were calculated using SPSS Version 10 software (IBM, New York, NY, USA), which defined the IC50 value as the concentration required to inhibit cell growth by 50%.
# [2] = system: HepG2 (liver) human carcinoma cell line; experiment: MTT cytotoxicity assay, HepG2 cells; format: cell-based; details: 48 h exposure
# Protocol: as §1, §2
# [3] = system: HeLa (epithelial cervical) human carcinoma cell line; experiment: MTT cytotoxicity assay, HeLa cells; format: cell-based; details: 48 h exposure
# Protocol: as §1, §2
# [4] = system: BEL-7402 (liver) human carcinoma cell line; experiment: MTT cytotoxicity assay, BEL-7402 cells; format: cell-based; details: Homo sapiens, 48 h exposure
# Protocol: as §1, §2
# [5] = system: HL-7702 normal human liver cell line; experiment: MTT cytotoxicity assay, HL-7702 normal liver cells; format: cell-based; details: L02, normal human liver cell HL-7702
# [6] = system: human promyelocytic leukemic cells (HL-60); parameters: method as in PMID 20884091; details: read-out: IC50 against HL-60; cited from earlier work
Compound,IC50 [1],"IC50 ([2]; Homo sapiens, HepG2, 48 h)","IC50 ([3]; Homo sapiens, HeLa, 48 h)",IC50 [4],IC50 [5],melting point,IC50 [2],IC50 [3],IC50 [6]
CC(C)c1ccc2c(c1)CCC1C(C)(C(=O)OCC(=O)NN=Cc3ccc(F)cc3)CCCC21C (stereo not shown) [4s],49.81 ± 0.49 µM,90.08 ± 0.33 µM,28.79 ± 0.24 µM,25.22 ± 0.22 µM,> 100 µM,169.2 to 170.5 °C,,,
CC(C)c1ccc2c(c1)CCC1C(C)(C(=O)OCC(=O)NN=Cc3cccc([N+](=O)[O-])c3)CCCC21C (stereo not shown) [4i],12.6 ± 0.24 µM,57.8 ± 0.75 µM,13.9 ± 0.41 µM,44.65 ± 0.21 µM,77.1 ± 0.96 µM,99.6 to 101.9 °C,,,
COc1cc(C=NNC(=O)COC(=O)C2(C)CCCC3(C)c4ccc(C(C)C)cc4CCC23)ccc1O (stereo not shown) [4d],38.7 ± 0.49 µM,35.26 ± 0.11 µM,12.22 ± 0.08 µM,33.6 ± 0.38 µM,50.7 ± 1.82 µM,117.6 to 119 °C,,,
CC(C)c1ccc2c(c1)CCC1C(C)(C(=O)OCC(=O)NN=Cc3ccc(Br)cc3)CCCC21C (stereo not shown) [4m],89.66 ± 0.27 µM,9.94 ± 0.59 µM,12.8 ± 0.15 µM,23.1 ± 0.33 µM,> 100 µM,188.1 to 188.6 °C,,,
CC(C)c1ccc2c(c1)CCC1C(C)(C(=O)OCC(=O)NN=Cc3ccc(N(C)C)cc3)CCCC21C (stereo not shown) [4e],48.85 ± 0.05 µM,7.62 ± 0.32 µM,34.92 ± 0.16 µM,15.6 ± 0.44 µM,63 ± 3.06 µM,163.4 to 164.7 °C,,,
"CC(C)c1ccc2c(c1)CCC1C(C)(C(=O)OCC(=O)NN=Cc3ccccc3Br)CCCC21C (stereo not shown) [4k, N’-(2-Bromobenzylidene)-2-(dehydroabietyloxy)acetohydrazide]",47.7 ± 0.23 µM,< 10 µM,< 10 µM,48.16 ± 0.32 µM,65.9 ± 1.48 µM,184.9 to 185.7 °C,8.47 ± 0.55 µM,5.53 ± 0.04 µM,
COc1cccc2c1C(=O)c1c(O)c3c(c(O)c1C2=O)C[C@@](O)(C(=O)CO)C[C@@H]3O[C@H]1C[C@H](N)[C@H](O)[C@H](C)O1 [doxorubicin],,,,,,,,,53.3 µM
CC(C)c1ccc2c(c1)CCC1C(C)(C(=O)OCC(=O)NN=Cc3cccc(F)c3)CCCC21C (stereo not shown) [4r],51 ± 0.94 µM,31.6 ± 0.47 µM,12.8 ± 0.13 µM,25.9 ± 0.53 µM,68.6 ± 1.25 µM,166 to 167.3 °C,,,
CC(C)c1ccc2c(c1)CCC1C(C)(C(=O)OCC(=O)NN=Cc3cccc(F)c3F)CCCC21C (stereo not shown) [4t],33.3 ± 0.56 µM,22.89 ± 0.04 µM,11.1 ± 0.15 µM,18.8 ± 0.59 µM,72 ± 1.66 µM,150.2 to 153.5 °C,,,
"COc1ccc(C=NNC(=O)COC(=O)C2(C)CCCC3(C)c4ccc(C(C)C)cc4CCC23)cc1 (stereo not shown) [4p, N’-(4-Methoxybenzylidene)-2-(dehydroabietyloxy)acetohydrazide]",56.98 ± 0.08 µM,48.59 ± 0.09 µM,34.33 ± 0.32 µM,55.29 ± 0.44 µM,91.8 ± 1.57 µM,174.8 to 175.5 °C,,,
CC(C)c1ccc2c(c1)CCC1C(C)(C(=O)OCC(=O)NN=Cc3ccccc3)CCCC21C (stereo not shown) [4a],28.2 ± 0.43 µM,27.8 ± 0.58 µM,17.89 ± 0.13 µM,36.7 ± 0.34 µM,> 100 µM,155.1 to 156.7 °C,,,
"CC(C)c1ccc2c(c1)CCC1C(C)(C(=O)OCC(=O)NN=Cc3ccc(F)cc3F)CCCC21C (stereo not shown) [4u, N’-(2,4-Difluorobenzylidene)-2-(dehydroabietyloxy)acetohydrazide]",32.83 ± 0.16 µM,25.4 ± 0.54 µM,5.86 ± 0.09 µM,18.6 ± 0.37 µM,55.8 ± 1.38 µM,181.9 to 184.5 °C,,,
"CC(C)c1ccc2c(c1)CCC1C(C)(C(=O)OCC(=O)NN=C/C=C/c3ccccc3)CCCC21C (stereo not shown) [4c, N’-(3-Phenylallylidene)-2-(dehydroabietyloxy)acetohydrazide]",15.8 ± 0.56 µM,27.6 ± 0.23 µM,10.8 ± 0.43 µM,21.03 ± 0.09 µM,53.2 ± 1.36 µM,185.7 to 187.3 °C,,,
"O=C(N/N=C/c1ccccc1O)c1ccc(-c2ccc(F)cc2F)o1 [(E)-2-hydroxybenzaldehyde-5-(2,4-difluorophenyl)-2-furoyl hydrazone]",,,,,,,,,16.4 µM
